Our source for the IC50 values is patent US8536175B2, “Quinoxaline carboxamide derivatives as protein tyrosine kinase inhibitors” (Novartis AG, priority 2008, dated 2013).

The assay concerns the target FGFR3 kinase (Homo sapiens (Human), UniProt P22607, K650E). Briefly: FGFR3 kinase inhibition (protein kinase activity assays). Type of assay: biochemical. The procedure:
generic assay set-up: Enzyme activities were measured by mixing 10 μL of a 3-fold concentrated compound solution or control with 10 μL of the corresponding substrate mixture (peptidic substrate, ATP and [γ^33P]ATP). The reactions were initiated by addition of 10 μL of a 3-fold concentrated solution of the respective enzyme in assay buffer. […] Filter binding (FB) method: FB assays were carried out in 96-well plates at room temperature for 10 min in a finial volume of 30 μL including the components as indicated in section above. […] After spotting, vacuum was connected and each well rinsed with 200 μL 0.5% H3PO4. Free membranes were removed and washed 4 times on a shaker with 1% H3PO4 and once with ethanol. Membranes were dried and overlaid with addition of 10 μL/well of a scintillation fluid. The plates were eventually sealed and counted in a microplate scintillation counter. IC50 values were calculated by linear regression analysis of the percentage inhibition of the compound.
generic assay set-up: The assay has been run at room temperature on a liquid handling robot. […] After an incubation time of 45 min in the dark, the plates were transferred into a fluorescence reader for counting.
Compounds of formula (I) are assayed to measure their capacity to inhibit FGFR3 kinase as described above.

The mark [1] stands for this setting: read-out: rating (FGFR3 kinase IC50).

Like-named read-outs stand apart in the source and are kept apart here.

Chain of FGFR3 kinase (P22607 23-806 K650E): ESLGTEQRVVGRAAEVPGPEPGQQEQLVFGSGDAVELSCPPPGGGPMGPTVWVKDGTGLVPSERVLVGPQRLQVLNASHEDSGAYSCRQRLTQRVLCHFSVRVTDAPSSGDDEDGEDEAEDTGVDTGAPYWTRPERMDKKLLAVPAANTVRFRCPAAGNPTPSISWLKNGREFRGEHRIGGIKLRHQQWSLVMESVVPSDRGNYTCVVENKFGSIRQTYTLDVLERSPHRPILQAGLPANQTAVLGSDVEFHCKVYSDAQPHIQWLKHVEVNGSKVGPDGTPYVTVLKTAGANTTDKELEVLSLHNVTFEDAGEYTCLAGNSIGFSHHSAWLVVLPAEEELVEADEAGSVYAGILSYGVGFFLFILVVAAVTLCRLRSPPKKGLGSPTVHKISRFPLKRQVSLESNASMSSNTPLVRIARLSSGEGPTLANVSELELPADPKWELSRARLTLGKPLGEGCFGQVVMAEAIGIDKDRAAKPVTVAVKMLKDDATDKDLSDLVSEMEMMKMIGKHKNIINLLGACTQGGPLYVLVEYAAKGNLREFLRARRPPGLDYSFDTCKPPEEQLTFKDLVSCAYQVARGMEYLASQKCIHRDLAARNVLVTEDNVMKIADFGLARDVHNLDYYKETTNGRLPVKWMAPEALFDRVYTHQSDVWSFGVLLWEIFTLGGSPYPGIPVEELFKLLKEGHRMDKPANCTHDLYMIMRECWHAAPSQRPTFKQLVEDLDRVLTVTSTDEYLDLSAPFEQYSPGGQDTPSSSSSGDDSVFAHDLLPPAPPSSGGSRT

Take `Cc1cscc1-c1ccc(C(=O)Nc2nc(CN3CCN(C)CC3)c[nH]2)c2nccnc12` [Example 69, 8-(4-Methyl-thiophen-3-yl)-quinoxaline-5-carboxylic acid [4-(4-methyl-piperazin-1-ylmethyl)-1H-imidazol-2-yl]amide]: the IC50 (usually the point on the concentration scale where inhibition reaches its midpoint) (average of 2 independent measurements, * single value, read-out: FGFR3 IC50) was > 10 µM.
For the compound `CCN1CCN(c2ccc(NC(=O)c3ccc(-c4c(Cl)c(OC)cc(OC)c4Cl)c4nccnc34)cc2)CC1` [Example 1, 8-(2,6-Dichloro-3,5-dimethoxy-phenyl)-quinoxaline-5-carboxylic acid [4-(4-ethyl-piperazin-1-yl)-phenyl]-amide], the IC50 under setting [1] is < 0.1 µM.
Regarding `COc1cc(OC)c(Cl)c(-c2ccc(C(=O)Nc3nccn3Cc3ccccc3)c3ncccc23)c1Cl` [Example 160, 5-(2,6-Dichloro-3,5-dimethoxy-phenyl)-quinoline-8-carboxylic acid (1-benzyl-1H-imidazol-2-yl)-amide], under setting [1], the IC50 was in the range of 0.5 to 50 µM.
Same read-out and setting: the value for `COc1cc(OC)c(F)c(-c2ccc(C(=O)Nc3cccnc3)c3nccnc23)c1F` [Example 90, 8-(2,6-Difluoro-3,5-dimethoxy-phenyl)-quinoxaline-5-carboxylic acid pyridin-3-ylamide] was 0.1 to 0.5 µM.
